pIC50: −log10 of the molar value. Entries after “also recorded” stand apart in the source; their conditions may differ.
Columns and labels:
KDM5B = target: T1, KDM5B (Homo sapiens, UniProt Q9UGL1); assay: KDM5B enzymatic assay (CisBio HTRF); assay type: biochemical
T1 construct: purchased Reaction Biology Corp (assay run there as a contract service)
Procedure: KDM5A and 5B were tested using CisBio HTRF assay platform by Reaction Biology Corp (Malvern, PA). All concentrations are final unless noted otherwise. Inhibitors were pre-incubated with 2.5 nM KDM5A or 1.2 nM KDM5B in a 5 μL reaction mixture containing 50 mM HEPES (pH 7.5), 50 mM NaCl, 0.01% Tween 20, 0.01% BSA for 15 min temperature. The reaction was initiated by addition of 5 μL of 50 nM Biotin-H3K4me3 and incubated with gentle shaking for 45 min at RT. The reaction was quenched with 10 mM EDTA and 200 mM potassium fluoride. Upon addition of Eu-Antibody and Streptavidine-XL665, the mixture was incubated for 2 hours in the dark. The fluorescence resonance energy transfer was measured using an excitation wavelength of 320 nm and emission wavelength of 665 nm on an Envision plate reader (Perkin Elmer).
(§1) Data was analyzed using GraphPad Prism 6.0 (La Jolla, CA). […] IC50 values were calculated as an average of at least two independent experiments.

KDM4A = KDM4A (Homo sapiens, UniProt O75164); assay: KDM4A enzymatic assay (AlphaLISA); assay type: biochemical
Sequence of KDM4A (O75164 whole entry): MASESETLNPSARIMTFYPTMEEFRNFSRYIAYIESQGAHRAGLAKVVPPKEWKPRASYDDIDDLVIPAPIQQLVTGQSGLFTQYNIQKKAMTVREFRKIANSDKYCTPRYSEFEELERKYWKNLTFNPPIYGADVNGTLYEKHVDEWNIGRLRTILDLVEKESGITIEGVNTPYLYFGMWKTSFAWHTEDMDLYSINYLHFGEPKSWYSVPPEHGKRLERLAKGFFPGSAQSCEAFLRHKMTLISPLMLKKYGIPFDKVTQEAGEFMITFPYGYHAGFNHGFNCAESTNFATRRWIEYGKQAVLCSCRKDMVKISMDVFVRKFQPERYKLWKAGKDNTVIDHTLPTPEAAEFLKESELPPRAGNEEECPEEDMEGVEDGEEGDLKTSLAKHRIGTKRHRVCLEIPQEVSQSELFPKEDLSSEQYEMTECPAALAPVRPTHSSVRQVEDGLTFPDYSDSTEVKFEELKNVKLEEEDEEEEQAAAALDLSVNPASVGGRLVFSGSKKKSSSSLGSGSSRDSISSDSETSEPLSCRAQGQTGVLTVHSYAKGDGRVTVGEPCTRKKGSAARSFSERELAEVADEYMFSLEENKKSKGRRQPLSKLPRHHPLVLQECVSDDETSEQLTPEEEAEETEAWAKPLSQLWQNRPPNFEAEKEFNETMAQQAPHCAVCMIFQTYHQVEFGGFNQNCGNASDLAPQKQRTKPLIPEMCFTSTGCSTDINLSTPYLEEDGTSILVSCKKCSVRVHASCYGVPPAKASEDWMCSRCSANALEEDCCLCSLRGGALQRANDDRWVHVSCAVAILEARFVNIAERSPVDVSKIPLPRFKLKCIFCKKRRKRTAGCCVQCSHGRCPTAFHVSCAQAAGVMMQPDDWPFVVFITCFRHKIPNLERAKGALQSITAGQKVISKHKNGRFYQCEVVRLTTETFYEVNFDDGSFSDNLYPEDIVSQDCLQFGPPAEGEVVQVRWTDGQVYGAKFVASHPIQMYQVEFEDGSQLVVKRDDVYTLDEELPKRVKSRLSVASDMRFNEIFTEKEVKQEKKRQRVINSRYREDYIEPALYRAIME
Procedure: The following assay protocol was used for all histone demethylases tested except KDM1A, KDM5A, B, and D, which are described below. Compounds were serially diluted into a 384-well Alpha plate as a DMSO solution and mixed with 5 μL reaction buffer (buffer A) containing 50 mM HEPES (pH 7.0), 0.1% BSA, and 0.003% Tween-20. The enzyme of interest was pre-incubated with 15 μM of Fe^2+ for 10 min (except 30 min for KDM2B) in reaction buffer A. 5 μL of the enzyme mixture was added to each of the compound-containing wells and incubated for 10 min. The reaction was started by addition of a 5 μL mixture containing 300 nM peptide substrate, 75 μM L-ascorbic acid, and 30 μM α-ketoglutarate in buffer A. This final 15 μL of reaction mixture was incubated for 20 min for KDM5B and 1 hour for the other KDM enzymes. The reaction was quenched with 10 μL of diluted AlphaLISA Acceptor beads (1:400) in Epigenetics Buffer and incubated for 60 min. The Donor beads were diluted 1:400 into Epigenetics Buffer in the dark and 10 μL of this was added to each well and incubated for another 60 min in the dark. The assay plates were read on an Enspire plate reader (PerkinElmer) using a standard AlphaLISA program.
as §1

HBV cccDNA = assay: cccDNA levels by Southern blot in HBV-infected PHH; assay type: cell-based, Hepatitis B virus; details: 1 or 10 µM every three to four days for 14 days
Procedure: PHH were plated in 24-well plates at 350,000–400,000 live cells per well and infected with HBV genotype D as described above. […] DNA was isolated from PHH using a MasterPure Complete DNA Purification kit (Epicentre, Madison, WI; MC85200) according to the manufacturer’s instructions, but omitting ProteinaseK or RNaseA treatment. After isolation, DNA was treated with T5 exonuclease (New England Biolabs, Ipswich, MA; M0363S) according to the manufacturer’s instructions.
cccDNA and host mitochondrial DNA (ND4) levels were examined by Southern blot using branched DNA signal amplification (bDNA) method as previously described. All probes and reagents were purchased from Thermo Fisher Scientific.
PHH were infected with HBV for three days prior to initiation of GS-5801 treatment. […] Total DNA was isolated, treated with T5 exonuclease to reduce levels of relaxed circular HBV DNA (rcDNA), and probed for cccDNA and mitochondrial DNA (Mt ND4: NADH-ubiquinone oxidoreductase chain 4) by Southern blot.

Tolerability in rats = assay type: in vivo; details: GS-5801 doses tested (0.3-30 mg/kg p.o. once daily for five days)
Procedure: Animals were sacrificed 24 hours post final dose and approximately 100 mg of liver (left lateral lobe), lung, and kidney tissue was collected. Additionally, one mL of venous blood for PBMC isolation was collected into K2EDTA vacutainer tubes (Thermo Fisher; BD367835). […] Diluted whole blood was layered onto an equal volume of HISTOPAQUE-1077 (Sigma; 10771) gradient medium and centrifuged at 400 x g for 30 minutes with the centrifuge brake switch off. PBMCs were collected at the plasma-HISTOPAQUE-1077 interface and washed three times with DPBS by centrifugation at 500 x g for 10 minutes. Tissue samples and PBMCs were snap frozen using liquid nitrogen and stored at -80°C for subsequent H3K4me3:H3 analysis by ELISA.

H3K4 methylation = assay: Histone mass spectrometry of H3K4 methylation in PHH; assay type: cell-based, human; details: uninfected PHH; 10 μM every 3 days; Day 7
Procedure: Approximately 25 million PHH from Donor (Bioreclamation) were plated on collagen coated (Coating Matrix kit, Life Technologies, Cat. #R-011-K) plates (coated for 30 minutes at 37°C and subsequently washed twice with PHH plating medium). The PHH plating medium was removed after 16 hours and replaced with PHH maintenance medium (Day 0). […] Modifications to the manufacturer’s protocol included two PBS washes prior to adding the histone extraction buffer to the cells, precipitation of eluted histones in 8% perchloric acid, and a single wash in cold acetone containing 0.2% HCl.
Fresh 1:100 propionic anhydride:water reagent was prepared and 1 μl of mixture was added immediately to the histone sample with vortexing and incubated for 5 minutes at 25°C. The reaction was quenched with 1 μl of 80 mM hydroxylamine for 20 minutes at 25°C. […]
1 μl of sample was injected using a Thermo Fischer Scientific Ultimate 3000 Autosampler (San Jose, CA) onto a 15 cm x 75 μm Thermo Fischer Scientific ES812 Easyspray nano column with 5 μm particle size. […] Each sample was analyzed three times.
Data was searched using Thermo Fischer Scientific Proteome Discoverer V2.1 software. […] The ratio of drug treated/control was calculated for each sample and then corrected using the average protein level ratio to account for differences in total protein between control and treated samples.

T1 sequence (Q9UGL1 whole entry): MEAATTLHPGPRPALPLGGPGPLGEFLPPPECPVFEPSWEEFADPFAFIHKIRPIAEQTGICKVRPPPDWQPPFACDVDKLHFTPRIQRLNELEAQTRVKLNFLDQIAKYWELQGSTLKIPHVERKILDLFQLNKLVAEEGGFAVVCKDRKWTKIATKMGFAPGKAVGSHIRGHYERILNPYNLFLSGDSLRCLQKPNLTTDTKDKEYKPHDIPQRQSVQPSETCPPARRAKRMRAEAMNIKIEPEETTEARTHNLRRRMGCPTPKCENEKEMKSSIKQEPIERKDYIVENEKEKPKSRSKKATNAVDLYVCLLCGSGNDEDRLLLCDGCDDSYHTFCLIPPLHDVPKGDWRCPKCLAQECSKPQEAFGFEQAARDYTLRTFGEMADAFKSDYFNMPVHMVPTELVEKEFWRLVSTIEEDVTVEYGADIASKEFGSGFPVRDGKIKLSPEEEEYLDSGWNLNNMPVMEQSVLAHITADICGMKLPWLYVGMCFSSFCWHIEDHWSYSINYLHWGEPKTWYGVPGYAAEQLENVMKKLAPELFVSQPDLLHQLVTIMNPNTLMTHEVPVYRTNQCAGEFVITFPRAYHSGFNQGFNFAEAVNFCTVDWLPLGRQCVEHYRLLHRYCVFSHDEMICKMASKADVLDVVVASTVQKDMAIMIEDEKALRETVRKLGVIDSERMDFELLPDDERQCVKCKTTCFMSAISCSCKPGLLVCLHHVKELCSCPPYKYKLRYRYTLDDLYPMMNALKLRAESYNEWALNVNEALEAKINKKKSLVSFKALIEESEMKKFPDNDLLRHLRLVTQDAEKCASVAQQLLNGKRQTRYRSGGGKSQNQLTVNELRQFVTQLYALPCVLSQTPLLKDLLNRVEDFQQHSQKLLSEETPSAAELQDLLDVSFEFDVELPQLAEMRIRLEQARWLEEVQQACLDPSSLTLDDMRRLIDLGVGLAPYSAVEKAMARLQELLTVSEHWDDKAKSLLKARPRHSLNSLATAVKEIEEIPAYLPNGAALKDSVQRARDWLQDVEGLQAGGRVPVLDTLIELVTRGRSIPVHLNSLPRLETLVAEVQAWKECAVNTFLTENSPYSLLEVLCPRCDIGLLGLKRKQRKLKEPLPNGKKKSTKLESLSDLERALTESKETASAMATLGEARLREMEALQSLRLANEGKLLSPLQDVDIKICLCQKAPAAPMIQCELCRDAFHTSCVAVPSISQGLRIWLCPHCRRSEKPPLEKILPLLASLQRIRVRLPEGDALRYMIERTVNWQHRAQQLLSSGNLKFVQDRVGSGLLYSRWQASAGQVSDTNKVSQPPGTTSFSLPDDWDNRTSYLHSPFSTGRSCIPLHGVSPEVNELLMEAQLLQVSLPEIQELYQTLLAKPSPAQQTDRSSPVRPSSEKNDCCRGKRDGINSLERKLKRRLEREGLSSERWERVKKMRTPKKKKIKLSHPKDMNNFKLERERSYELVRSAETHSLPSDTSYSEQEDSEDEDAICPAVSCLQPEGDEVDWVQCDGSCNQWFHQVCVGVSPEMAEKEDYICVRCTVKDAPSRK

| Fold Selectivity Compared to KDM5A (KDM5B; IC50 of KDM5B over KDM5A) [fold] | pIC50 (KDM5B; enzyme concentration 1.2 nM, IC50 lower than enzyme concentration, likely underestimates potency) | Fold Selectivity Compared to KDM5A (KDM4A; IC50 of KDM4A over KDM5A) [fold] | pIC50 (KDM4A; enzyme concentration 0.2 nM) | Structure (SMILES) | levels of cccDNA (HBV cccDNA) | adverse effects (Tolerability in rats) | change in H3K4 methylation species by quantitative mass spectrometry (H3K4 methylation) |
| --- | --- | --- | --- | --- | --- | --- | --- |
| 1 | 9.42 | 20 | 8.14 | CCN(CCN(C)C)C(=O)CNCc1cc(C(=O)O)ccn1 [GS-080] | – | – | – |
| – | – | – | – | CCOC(=O)c1ccnc(CNCC(=O)N(CC)CCN(C)C)c1 [GS-5801] | did not alter levels of cccDNA; also recorded: does not reduce levels of cccDNA; also recorded: no sign of reduced cccDNA | no adverse effects were observed | predominantly caused an increase in trimethylated H3K4 (H3K4me3) |

Source: PMC9728921, “Characterization of a KDM5 small molecule inhibitor with antiviral activity against hepatitis B virus” (PLOS ONE, 2022)
